Experimental data from patent US9089499B2, “Para-coumaric acid or para-hydroxycinnamic acid derivatives and their use in cosmetic or dermatological compositions” (BASF Beauty Care Solutions France S.A.S., priority 2005, dated 2015).

Assays:
[1] = system: fungal tyrosinase; assay: In vitro test of inhibition of isolated fungal tyrosinase (L-dopa, dopachrome OD 490 nm); format: biochemical; details: 490 nm
Source text: Tyrosinase catalyses the formation of L-dopaquinone and then of dopachrome from L-dopa. Now, dopachrome is a coloured compound that may be quantified by visible spectrophotometry at 490 nm. The use of an active agent capable of modifying the enzymatic activity will be reflected by a variation in the optical density at 490 nm. The to ratio of the rates of formation of dopachrome makes it possible to determine precisely the activations or inhibitions obtained with the various test molecules.
The sample to be tested is incubated in the presence of fungal tyrosinase (Sigma), for 5 minutes with stirring. L-Dopa (Sigma), a tyrosinase substrate, is incubated for 10 minutes in the absence of light, in the presence or absence of the test molecules. The calculation of the percentage of inhibition is performed by relating the test OD to the OD of the negative control without molecule.
In the context of this in vitro test, the p-coumaric acid derivatives were tested at final concentrations of 10^−4M and 10^−5M.

[2] = biological target: T1, Human tyrosinase (Homo sapiens, UniProt P14679); assay: In vitro test of inhibition of human tyrosinase from melanocyte extracts (L-dopa/MBTH, OD 490 nm); format: biochemical; details: melanocyte extract
T1 construct: endogenous in cells; host or cells: normal human melanocytes (abdominal surgery; several donors of fair, brown and black phototypes)
T1 sequence (P14679 19-529): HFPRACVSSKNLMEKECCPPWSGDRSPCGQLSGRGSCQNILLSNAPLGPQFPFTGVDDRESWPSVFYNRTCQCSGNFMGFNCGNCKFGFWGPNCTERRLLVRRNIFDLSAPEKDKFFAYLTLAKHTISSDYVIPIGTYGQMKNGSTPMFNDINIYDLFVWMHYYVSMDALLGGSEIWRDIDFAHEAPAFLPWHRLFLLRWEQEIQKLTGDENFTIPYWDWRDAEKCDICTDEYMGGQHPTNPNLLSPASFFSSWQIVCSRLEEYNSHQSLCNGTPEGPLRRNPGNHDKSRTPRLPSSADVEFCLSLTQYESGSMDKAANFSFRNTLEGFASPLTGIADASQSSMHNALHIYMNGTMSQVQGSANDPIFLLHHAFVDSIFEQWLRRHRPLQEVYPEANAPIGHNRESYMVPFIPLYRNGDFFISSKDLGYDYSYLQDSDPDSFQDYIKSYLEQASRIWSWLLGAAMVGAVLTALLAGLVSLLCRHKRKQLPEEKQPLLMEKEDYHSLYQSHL
Protocol: Human tyrosinase, obtained from melanocyte extracts obtained from healthy donors, catalyses the formation of L-dopaquinone from L-dopa. Now, the L-dopaquinone may be quantified by visible spectrophotometry at 490 nm by means of a chromogen: 3-methyl-2-benzothiazolinone hydrazone (MBTH).
The melanocyte extract is obtained after lysis of cell membranes of the normal human melanocytes, performed via a thermal shock. The supernatant is recovered and then incubated with MBTH (Sigma) and L-dopa (Sigma). […]

[3] = biological target: T1, Human tyrosinase; assay: Inhibition of human tyrosinase after 24 h application to normal human melanocytes in monolayer; format: cell-based; details: 10^−5M; 24 hours; read-out: Inhibition of human tyrosinase after application to normal human melanocytes, percentage of inhibition, Mean 10^−5M
Protocol: Normal human melanocytes (obtained from abdominal surgery) are seeded in 24-well plates at a rate of 80 000 cells per well. They are cultured to confluence and the active agents are applied for 24 hours to the culture media. After 24 hours, the media are removed and the melanocytes are detached via mechanical action. An extraction is performed via a thermal shock and the supernatants are then recovered and incubated with MBTH (Sigma) and L-dopa (Sigma). The OD at 490 nm is measured after 30 minutes, and the tyrosinase inhibition is calculated by relating the OD at 490 nm to the protein content (measured in each culture well) of the test relative to the ratio: OD 490 nm/protein concentration of the negative control (untreated control).
The compounds derived from the examples mentioned above were tested on melanocytes derived from various donors but of fair phototype, according to the protocol described in Example 29. The donors tested are as follows: • donor S (donor tested in Example 12): • donor 1: • donor 2: • donor 3
The compound derived from Example 1 is tested on cultures of melanocytes obtained from 2 donors of brown phototype and from one donor of black phototype. The protocol applied is that described in Example 29. […]

[4] = system: normal human melanocytes; assay: Cytotoxicity on normal human melanocytes, PNPP assay; format: cell-based; details: 10^−5 M; 24 hours; relative to untreated wells
Protocol: The cytotoxicity of the active agents is studied on normal human melanocytes in 24-well plates, via assay with PNPP (P-nitrophenyl phosphate), this substance being converted into p-nitrophenol via the intracellular acid phosphatases of viable cells. The absorbance of p-nitrophenol at 405 nm is directly proportional to the number of viable cells.
The active agents are tested at 2 different concentrations (10^−4 M and 10^−5 M) and added to the culture medium and incubated at 37° C. for 24 hours. The assay with PNPP is performed on the cell lawn and the results are expressed as a percentage of viability relative to the negative control (untreated wells).

[5] = Antiradical activity, acellular DPPH model; details: DPPH 30 minutes, absorbance 520 nm
Protocol: The antiradical activity of the derivatives derived from the syntheses described above was evaluated in an in vitro acellular model using DPPH.
1,1-Diphenyl 2-picryihydrazyl, on account of its paramagnetic structure, can accept an electron or a hydrogen radical to become a stable diamagnetic molecule. This free radical, which is purple coloured in ethanol, has a strong absorption band at 520 nm.
The addition of a compound that provides electrons results in a decolorization of the 1,1-diphenyl 2-picrylhydrazyl that is proportional to the number of electrons taken up by the radical, which may be monitored by measuring the absorbance at 520 nm.
DPPH is incubated for 30 minutes in the presence of the derivatives described above, tested at a concentration of 10^−5M, or alone for the control. At the end of the incubation, the antiradical activity of the above derivatives is evaluated by measuring the absorbance of the solution at 520 nm.
The antiradical activity of each test product is calculated according to the formula, as a percentage: 100−((OD520 in the presence of the test compound/OD520 in the absence of compound)×100)

COc1ccc(CCNC(=O)/C=C/c2ccc(O)c(O)c2)cc1OC [Example 12, N-trans-caffeoyl-3,4-dimethoxydopamine]
Inhibition of fungal tyrosinase, percentage of inhibition, Mean 10^−4M ([1]; 10^−4M): 17.32%
Inhibition of fungal tyrosinase, percentage of inhibition, Mean 10^−5M ([1]; 10^−5M): 20.26%
inhibition at 100 µM ([2]; 10^−4M, read-out: Inhibition of human tyrosinase, percentage of inhibition, Mean 10^−4M): 6.53%
inhibition at 10 µM ([2]; 10^−5M, read-out: Inhibition of human tyrosinase, percentage of inhibition, Mean 10^−5M): 0%
inhibition at 10 µM [3]: 5.63%
Percentages of viability, Mean 10^−5 M [4]: 109.84%
Antiradical activity, Mean 10^−5 M [5]: 44.51%
